# Measurements from US20220289794A1, “SYNTHETIC ANTIMICROBIAL PEPTIDES” (priority 2019, published 2022).
# Non-standard residues stand in square brackets, D forms with d. Residues, ends and D or L forms follow the SMILES beside them. Trp(6-Cl) = N[C@@H](Cc1c[nH]c2cc(Cl)ccc12)C(=O)O; d2Nal = N[C@H](Cc1ccc2ccccc2c1)C(=O)O; Dab = NCC[C@H](N)C(=O)O
# Legend:
# [1] = test system: Methicillin-resistant Staphylococcus aureus MRSA (ATCC BAA-1556); conditions: ATCC BAA-1556
# [2] = test system: S. aureus ATCC 29213; conditions: ATCC 29213
# [3] = test system: Pseudomonas aeruginosa (ATCC 27883); conditions: ATCC 27883
# [4] = test system: Escherichia coli (ATCC 25922); conditions: ATCC 25922
# [5] = test system: human red blood cells; parameters: unit not given beside the values
Compound,MIC MRSA ATCC BAA-1556 [1],MIC S. aureus ATCC 29213 [2],MIC P. aeruginosa ATCC 27883 [3],MIC E. coli ATCC 25922 [4],HC50 [5]
"N=C(N)NCCC[C@H]1NC(=O)[C@@H](CCCNC(=N)N)NC(=O)[C@@H](CCCNC(=N)N)NC(=O)[C@@H](Cc2c[nH]c3ccccc23)NC(=O)[C@@H](Cc2c[nH]c3ccccc23)NC(=O)[C@@H](Cc2c[nH]c3ccccc23)NC(=O)[C@@H](Cc2c[nH]c3ccccc23)NC(=O)[C@@H](CCCNC(=N)N)NC(=O)[C@@H](CCCNC(=N)N)NC1=O [IFX-037, c[arg-arg-arg-arg-arg-trp-trp-trp-trp]]",6.2 µg/mL,3.1 µg/mL,25 µg/mL,12.5 µg/mL,670
"N=C(N)NCCC[C@@H]1NC(=O)[C@H](CCCNC(=N)N)NC(=O)[C@H](CCCNC(=N)N)NC(=O)[C@H](Cc2c[nH]c3cc(Cl)ccc23)NC(=O)[C@H](Cc2c[nH]c3cc(Cl)ccc23)NC(=O)[C@H](Cc2c[nH]c3cc(Cl)ccc23)NC(=O)[C@H](Cc2c[nH]c3cc(Cl)ccc23)NC(=O)[C@H](CCCNC(=N)N)NC1=O [IFX-040, c[Arg-Arg-Arg-Arg-6clW-6clW-6clW-6clW]] (cyclo(RRRR[Trp(6-Cl)][Trp(6-Cl)][Trp(6-Cl)][Trp(6-Cl)]))",3.1 µg/mL,3.1 µg/mL,100 µg/mL,100 µg/mL,490
N=C(N)NCCC[C@@H]1NC(=O)CNC(=O)[C@H](Cc2c[nH]c3ccccc23)NC(=O)[C@H](Cc2c[nH]c3ccccc23)NC(=O)[C@H](Cc2c[nH]c3ccccc23)NC(=O)[C@H](Cc2c[nH]c3ccccc23)NC(=O)CNC(=O)[C@H](CCCNC(=N)N)NC(=O)[C@H](CCCNC(=N)N)NC(=O)[C@H](CCCNC(=N)N)NC1=O [IFX-043] (cyclo(GRRRRGWWWW)),6.2 µg/mL,6.2 µg/mL,50 µg/mL,25 µg/mL,580
C[C@@H]1NC(=O)[C@H](C)NC(=O)[C@H](CCCNC(=N)N)NC(=O)[C@H](CCCNC(=N)N)NC(=O)[C@H](CCCNC(=N)N)NC(=O)[C@H](CCCNC(=N)N)NC(=O)[C@H](C)NC(=O)[C@H](C)NC(=O)[C@H](Cc2c[nH]c3ccccc23)NC(=O)[C@H](Cc2c[nH]c3ccccc23)NC(=O)[C@H](Cc2c[nH]c3ccccc23)NC(=O)[C@H](Cc2c[nH]c3ccccc23)NC1=O [IFX-045] (cyclo(AARRRRAAWWWW)),25 µg/mL,25 µg/mL,50 µg/mL,50 µg/mL,390
"N=C(N)NCCC[C@@H]1NC(=O)[C@@H](CCCNC(=N)N)NC(=O)[C@H](CCCNC(=N)N)NC(=O)[C@@H](Cc2ccc3ccccc3c2)NC(=O)[C@@H](Cc2ccc3ccccc3c2)NC(=O)[C@H](Cc2c[nH]c3ccccc23)NC(=O)[C@H](CCN)NC(=O)[C@@H](CCCNC(=N)N)NC1=O [IFX-054, c[Arg-arg-Arg-arg-Dab-Trp-naI-naI]] (cyclo([Dab]W[d2Nal][d2Nal]R[dR]R[dR]))",64 µg/mL,32 µg/mL,64 µg/mL,32 µg/mL,620
"N=C(N)NCCC[C@@H]1NC(=O)[C@H](CCN)NC(=O)[C@@H](CCCNC(=N)N)NC(=O)[C@H](CCCNC(=N)N)NC(=O)[C@@H](Cc2ccc3ccccc3c2)NC(=O)[C@@H](Cc2ccc3ccccc3c2)NC(=O)[C@H](Cc2c[nH]c3ccccc23)NC(=O)[C@@H](CCCNC(=N)N)NC1=O [IFX-055, c[Arg-arg-Dab-Arg-arg-Trp-naI-naI]] (cyclo([Dab]R[dR]W[d2Nal][d2Nal]R[dR]))",32 µg/mL,32 µg/mL,32 µg/mL,16 µg/mL,575
"N=C(N)NCCC[C@@H]1NC(=O)[C@H](CCN)NC(=O)[C@@H](Cc2ccc3ccccc3c2)NC(=O)[C@@H](Cc2ccc3ccccc3c2)NC(=O)[C@H](Cc2c[nH]c3ccccc23)NC(=O)[C@@H](CCCNC(=N)N)NC(=O)[C@H](CCCNC(=N)N)NC(=O)[C@@H](CCCNC(=N)N)NC1=O [IFX-056, c[Dab-Arg-arg-Arg-arg-Trp-naI-naI]] (cyclo([Dab]R[dR]R[dR]W[d2Nal][d2Nal]))",64 µg/mL,32 µg/mL,32 µg/mL,32 µg/mL,415
"N=C(N)NCCC[C@@H]1NC(=O)[C@H](CCN)NC(=O)[C@@H](Cc2ccc3ccccc3c2)NC(=O)[C@@H](Cc2ccc3ccccc3c2)NC(=O)[C@H](Cc2c[nH]c3ccccc23)NC(=O)[C@H](CCN)NC(=O)[C@@H](CCCNC(=N)N)NC(=O)[C@H](CCCNC(=N)N)NC(=O)[C@@H](CCCNC(=N)N)NC1=O [IFX-057, c[Dab-Arg-arg-Arg-arg-Dab-Trp-naI-naI]] (cyclo([Dab]R[dR]R[dR][Dab]W[d2Nal][d2Nal]))",32 µg/mL,16 µg/mL,32 µg/mL,32 µg/mL,520
"N=C(N)NCCC[C@@H]1NC(=O)[C@H](CCN)NC(=O)[C@@H](Cc2ccc3ccccc3c2)NC(=O)[C@@H](Cc2ccc3ccccc3c2)NC(=O)[C@H](Cc2c[nH]c3ccccc23)NC(=O)[C@@H](CCCNC(=N)N)NC(=O)[C@H](CCCNC(=N)N)NC(=O)[C@H](CCN)NC(=O)[C@@H](CCCNC(=N)N)NC1=O [IFX-058, c[Dab-Arg-arg-Dab-Arg-arg-Trp-naI-naI]] (cyclo([Dab]R[dR][Dab]R[dR]W[d2Nal][d2Nal]))",64 µg/mL,32 µg/mL,32 µg/mL,32 µg/mL,655
"N=C(N)NCCC[C@@H]1NC(=O)[C@H](CCN)NC(=O)[C@@H](CCCNC(=N)N)NC(=O)[C@H](CCCNC(=N)N)NC(=O)[C@@H](Cc2ccc3ccccc3c2)NC(=O)[C@@H](Cc2ccc3ccccc3c2)NC(=O)[C@H](Cc2c[nH]c3ccccc23)NC(=O)[C@H](CCN)NC(=O)[C@@H](CCCNC(=N)N)NC1=O [IFX-059, c[Arg-arg-Dab-Arg-arg-Dab-Trp-naI-naI]] (cyclo([Dab]R[dR][Dab]W[d2Nal][d2Nal]R[dR]))",128 µg/mL,64 µg/mL,32 µg/mL,32 µg/mL,780
